Laboratory results: the NIST ThermoML archive (doi:10.1021/je800026p)

Test: xn = mol fraction of the nth substance listed
Conditions: 101 kPa, Liquid; for speed of sound: Sing-around technique in a fixed-path interferometer; for mass density: Vibrating tube method

CCCCCCOCCOCCO [2-(2-hexyloxyethoxy)ethanol] + CCCCN
Conditions | mass density, 288.15 K [kg/m3] | mass density, 293.15 K [kg/m3] | mass density, 298.15 K [kg/m3] | mass density, 303.15 K [kg/m3] | mass density, 308.15 K [kg/m3] | speed of sound, 288.15 K [m/s] | speed of sound, 293.15 K [m/s] | speed of sound, 298.15 K [m/s] | speed of sound, 303.15 K [m/s] | speed of sound, 308.15 K [m/s]
x1 = 0.1165 | 788.964 | 784.34 | 779.774 | 775.186 | 770.602 | 1323 | 1302.2 | 1281.5 | 1260.8 | 1240.3
x1 = 0.1587 | 803.568 | 799.044 | 794.52 | 790 | 785.486 | 1332.3 | 1312 | 1291.7 | 1271.5 | 1251.3
x1 = 0.1943 | 814.988 | 810.552 | 806.078 | 801.606 | 797.118 | 1339.5 | 1319.7 | 1299.7 | 1279.8 | 1259.8
x1 = 0.2403 | 828.571 | 824.179 | 819.765 | 815.333 | 810.88 | 1348.2 | 1328.7 | 1309.1 | 1289.6 | 1270
x1 = 0.2974 | 843.631 | 839.297 | 834.939 | 830.566 | 826.173 | 1357.8 | 1338.8 | 1319.6 | 1300.6 | 1281.3
x1 = 0.3403 | 853.769 | 849.458 | 845.129 | 840.783 | 836.421 | 1364.2 | 1345.5 | 1326.6 | 1307.9 | 1288.9
x1 = 0.3916 | 864.666 | 860.386 | 856.092 | 851.78 | 847.457 | 1371.1 | 1352.6 | 1334.1 | 1315.7 | 1297.1
x1 = 0.4568 | 876.866 | 872.668 | 868.407 | 864.132 | 859.843 | 1378.6 | 1360.4 | 1342.2 | 1324.2 | 1306
x1 = 0.5105 | 885.772 | 881.607 | 877.388 | 873.158 | 868.903 | 1383.9 | 1365.9 | 1348 | 1330.1 | 1312.3
x1 = 0.5658 | 894.125 | 889.991 | 885.768 | 881.571 | 877.355 | 1388.5 | 1370.7 | 1353 | 1335.3 | 1317.8
x1 = 0.6081 | 900.031 | 895.896 | 891.728 | 887.547 | 883.355 | 1391.5 | 1373.9 | 1356.3 | 1338.8 | 1321.2
x1 = 0.6559 | 906.287 | 902.162 | 898.025 | 893.876 | 889.716 | 1394.5 | 1376.9 | 1359.5 | 1342.1 | 1324.9
x1 = 0.6977 | 911.396 | 907.303 | 903.194 | 899.074 | 894.942 | 1396.7 | 1379.2 | 1361.8 | 1344.5 | 1327.5
x1 = 0.7402 | 916.322 | 912.248 | 908.162 | 904.067 | 899.964 | 1398.6 | 1381.2 | 1363.9 | 1346.7 | 1329.8
x1 = 0.8029 | 923 | 918.949 | 914.893 | 910.805 | 906.755 | 1400.8 | 1383.5 | 1366.4 | 1349.3 | 1332.5
x1 = 0.8675 | 928.954 | 924.929 | 920.91 | 916.89 | 912.833 | 1402.5 | 1385.4 | 1368.3 | 1351.4 | 1334.6
x1 = 0.9082 | 932.126 | 928.121 | 924.113 | 920.095 | 916.07 | 1403.4 | 1386.3 | 1369.3 | 1352.4 | 1335.7
x1 = 0.9635 | 935.472 | 931.477 | 927.494 | 923.492 | 919.484 | 1404.3 | 1387.4 | 1370.4 | 1353.6 | 1336.8
